Test [1] has as its system Rat Antigen-Induced Cystitis Model. Put plainly: Rat antigen-induced cystitis model: peroxidase activity in bladder extract. In kind it is in vivo, Brown Norway (BN) female rats. As to conditions: bladder removed after 24 hours, saline group 0%, control group 100%. As to the method:
Efficacy of PDE 4 Inhibitors in Rat Antigen-Induced Cystitis Model
Antigen sensitization was carried out by intraperitoneally administering physiological saline containing ovalbumin (OA, 1 mg/ml)-aluminum hydroxide gel (Alum, 20 mg/ml) to Brown Norway (BN) female rats, at a dose of 1 ml per animal for 3 continuous days. After completion of the sensitization, a urethral catheter was attached to each animal under anesthesia, 3% OA/physiological saline was injected into the bladder to induce cystitis, and the resulting animals were used as the control group. Also, a group in which physiological saline was injected into the bladder of each sensitized rat was used as the physiological saline group. A group in which compound A (3 mg/kg), roflumilast (3 mg/kg) or cilomilast (30 mg/kg) was orally administered 1 hour before the intravesical antigen injection was used as a compound A administration group, a roflumilast administration group or a cilomilast administration group. After 24 hours of the intravesical antigen injection, the bladder was removed under pentobarbital anesthesia, and bladder extract was prepared in accordance with the method of Malley et al. (Physiological Genomics, (USA), 2002, vol. 9, no. 1, pp. 5-13). Peroxidase activity in the bladder extract was measured in accordance with the method of Bradley et al. (The Journal of Investigative Dermatology, (England), March 1982, vol. 78, no. 3, pp. 206-9) using human myeloperoxidase (manufactured by Sigma) as the standard, and the results were expressed by defining the peroxidase activity of the physiological saline group as 0%, and the peroxidase activity of the control group as 100%.
When antigen-induced cystitis was caused by carrying out antigen injection into the bladder of each of the sensitized BN rats, and peroxidase activity in the bladder tissue was measured as one of the indexes of cystitis, increase in the peroxidase activity in the bladder tissue was found in the control group. […]

Test [2] deals with Rat Hydrochloric Acid-Induced Cystitis Model. Put plainly: Rat hydrochloric acid-induced cystitis model: intravesical pressure recording. The test is classed as in vivo, Brown Norway (BN) female rats. As to conditions: 1 mg/kg orally once a day for 10 days after 0.4 N HCl into the bladder; measured after 11 days under urethane anesthesia. As to the method:
Efficacy of PDE 4 Inhibitors in Rat Hydrochloric Acid-Induced Cystitis Model
A bladder disorder was induced by attaching a urethral catheter to each of Brown Norway (BN) female rats under ether anesthesia and injecting 0.4 N hydrochloric acid into the bladder (0.15 ml per one rat). Starting on the next of the bladder disorder induction, the compound A (1 mg/kg) or a vehicle (0.5% methyl cellulose aqueous solution) was orally administered once a day for 10 days, and respectively used as a compound A administration group and a control group. Also, a group in which physiological saline was injected into the bladder (0.15 ml per one rat), and the vehicle was orally administered once a day for 10 days starting on the next day, was used as a physiological saline group. After 11 days of the bladder disorder induction, each rat was fixed in the supine position under urethane anesthesia and equipped with a urethral catheter, and via its three-way cock, one end was used as the injection passage and the other end was connected to a pressure transducer (DX-312, manufactured by NIHON KOHDEN). Physiological saline was continuously injected into the bladder (50 μl/min) using an infusion pump (model 22, Harvard), and the intravesical pressure at that time was amplified by a pre-amplifier (AP-621G, manufactured by NIHON KOHDEN) and recorded using a recorder. […] In comparison with this, in the case of the control group, increase in the resting time intravesical pressure was observed, but increase in the bladder contraction pressure at the time of micturition was hardly found, and micturition frequency was high. In the compound A administration group, increase of the resting time intravesical pressure was inhibited, and increase in the intravesical pressure accompanied by the micturition reflex was also observed.

[3] abbreviates: 3 mg/kg orally 1 hour before intravesical antigen (OA) injection.

Regarding `O=C(Nc1c(Cl)cncc1Cl)c1ccc(OC(F)F)c(OCC2CC2)c1` [roflumilast], the “inhibition of the increase of peroxidase activity in the bladder tissue” value in test [1] (setting [3]) was determined as 79%.

With `COc1ccc([C@]2(C#N)CC[C@@H](C(=O)O)CC2)cc1OC1CCCC1` [cilomilast], the “inhibition of the increase of peroxidase activity in the bladder tissue” value in test [1] (30 mg/kg orally 1 hour before intravesical antigen (OA) injection) is listed as 68%.

As to `CCn1c(=O)c(CCC(=O)O)c(-c2cccc(Cl)c2)c2ccc(C)nc21` [compound A, 3-[4-(3-chlorophenyl)-1-ethyl-7-methyl-2-oxo-1,2-dihydro-1,8-naphthyridin-3-yl]propanoic acid], in test [1] (setting [3]), the “inhibition of the increase of peroxidase activity in the bladder tissue” value was determined as 72%. In test [2], the “increase in the intravesical pressure accompanied by the micturition reflex” value is listed as “observed”, the “increase of the resting time intravesical pressure” value is listed as “inhibited” and the “interval of the micturition reflex” value is “almost the same as that of the physiological saline administration group”.

The values are drawn from patent US20070167450A1, “Agent for treating chronic pelvic pain syndrome” (Astellas Pharma Inc., priority 2003, published 2007).
